# Experimental data taken from patent US9284528B2, “Use of stem cell conditioned medium to inhibit oxidation for anti-aging skin” (GROWGENE BIOTECH INC., priority 2014, dated 2016).
# Test: ABTS free radicals scavenging assay (antioxidant assay kit, Cayman)
# Assay type: biochemical
# Details: 0.0625-1 mM tested; 5 minutes room temperature; absorbance 750 nm
# Method: An antioxidant assay kit (Cayman) was used for this assay according to the instructions. Each of samples including 10 μl of 6.25%˜100% conditioned medium or 0.0625˜1 mM L-ascorbic acid (L-AA) was mixed with 10 μl of metmyoglobin, 150 μl chromogen, and 40 μl hydrogen peroxide for reaction at room temperature for 5 minutes. Because stem cell conditioned medium (CM) is a composite component, a percentage (%) instead of a concentration (mM) is presented as the unit of CM herein.
# Referring to FIG. 2A, it is a representative diagram showing the effect of WJMSC-CM on scavenging ABTS free radicals. Various concentration of L-ascorbic acid (L-AA) or stem cell conditioned medium (CM) was mixed with an appropriate amount of ABTS and oxidants for reaction. ABTS has an absorption peak at 750 nm. This assay is based on the ability of antioxidants to reduce ABTS into its colourless form and the extent of decolourisation corresponding to the absorbance reduction of ABTS.
smiles,measurement,value
O=C1O[C@H]([C@@H](O)CO)C(O)=C1O [L-ascorbic acid],IC50,806 µM
